According to patent US20090202997A1, “Cell-Free In Vitro Transcription and Translation of Membrane Proteins into Tethered Planar Lipid Layers” (priority 2005, published 2009):

System: odorant receptor OR5
Test: IR spectroscopy of OR5/tBLM system upon addition of odorant
Assay type: binding, rat
Experimental: The activity of incorporated odorant receptors was measured using IR spectroscopy.

CC(C=O)Cc1ccc(C(C)(C)C)cc1 (centres unmarked) [lilial]
signal change of the IR amide I peak (recognition of the odor by the receptor) (1 mM lilial added to tBLM integrated OR5): recognition of the odor by the receptor
reversibility of the lilial/OR5 interaction (rinsing with PBS): can be reversed by rinsing with PBS
